In PubChem BioAssay AID2060508 (Molecular Pharmacology Branch, DTP, NCI, 2025):

Each compound was assayed on 454973-116-R2-J3-PDC spheroids, viability, % test/control (assay: Anticancer human tumor 454973-116-R2-J3-PDC patient-derived pancreatic carcinoma cell line growth inhibition [GQUAD]). Conditions: curve of first compound; second compound 10 µM; spheroids with HUVEC and MSC.
Procedure, shortened: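 Multi-cell-type spheroids of tumor cells with HUVEC and mesenchymal stem cells, treated with drug combinations. Concentrations descend in half-log steps from near clinical Cmax, or from 10 microM where Cmax is unknown; viability read-out.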
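Note: spheroids exposed to compounds for seven days.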
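Throughout, for viability, T/C: 100% = DMSO vehicle control viability.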

SMILES | IC50 [nM]
CC1COCCN1c1cc(C2(O)CC3CCC(C2)O3)c2cnn(-c3ccn[nH]3)c2n1 (stereo unspecified) + CN(C)c1ccc(Nc2c3ccc(NC(=O)CCN4CCCC4)cc3nc3cc(NC(=O)CCN4CCCC4)ccc23)cc1 | 99.5
Cc1cccc(N(C)C(=O)C2C(O)CCN2c2nc(C)cc(C(F)(F)F)c2C#N)c1 (stereo unspecified) + CN(C)c1ccc(Nc2c3ccc(NC(=O)CCN4CCCC4)cc3nc3cc(NC(=O)CCN4CCCC4)ccc23)cc1 | > 10000
Cn1ncnc1[C@H]1c2n[nH]c(=O)c3cc(F)cc(c23)N[C@@H]1c1ccc(F)cc1 + CN(C)c1ccc(Nc2c3ccc(NC(=O)CCN4CCCC4)cc3nc3cc(NC(=O)CCN4CCCC4)ccc23)cc1 | > 316
O=C(c1cc(Cc2n[nH]c(=O)c3ccccc23)ccc1F)N1CCN(C(=O)C2CC2)CC1 + CN(C)c1ccc(Nc2c3ccc(NC(=O)CCN4CCCC4)cc3nc3cc(NC(=O)CCN4CCCC4)ccc23)cc1 | > 10000

Same assay, conditions: second compound 0.0316 µM; first compound 0.000999 µM; stronger effect = lower value; spheroids with HUVEC and MSC

SMILES | viability, T/C [%]
Cn1ncnc1[C@H]1c2n[nH]c(=O)c3cc(F)cc(c23)N[C@@H]1c1ccc(F)cc1 + CN(C)c1ccc(Nc2c3ccc(NC(=O)CCN4CCCC4)cc3nc3cc(NC(=O)CCN4CCCC4)ccc23)cc1 | 106

Same assay, conditions: second compound 0.0316 µM; first compound 0.00316 µM; stronger effect = lower value; spheroids with HUVEC and MSC

SMILES | viability, T/C [%]
Cn1ncnc1[C@H]1c2n[nH]c(=O)c3cc(F)cc(c23)N[C@@H]1c1ccc(F)cc1 + CN(C)c1ccc(Nc2c3ccc(NC(=O)CCN4CCCC4)cc3nc3cc(NC(=O)CCN4CCCC4)ccc23)cc1 | 94.7

Same assay, conditions: second compound 0.0316 µM; first compound 0.00999 µM; stronger effect = lower value; spheroids with HUVEC and MSC

SMILES | viability, T/C [%]
Cn1ncnc1[C@H]1c2n[nH]c(=O)c3cc(F)cc(c23)N[C@@H]1c1ccc(F)cc1 + CN(C)c1ccc(Nc2c3ccc(NC(=O)CCN4CCCC4)cc3nc3cc(NC(=O)CCN4CCCC4)ccc23)cc1 | 94.2

Same assay, conditions: second compound 0.0316 µM; first compound 0.0316 µM; stronger effect = lower value; spheroids with HUVEC and MSC

SMILES | viability, T/C [%]
C=CC(=O)N1CCN(c2nc(=O)n(-c3c(C)ccnc3C(C)C)c3nc(-c4c(O)cccc4F)c(F)cc23)C(C)C1 (stereo unspecified) + CN(C)c1ccc(Nc2c3ccc(NC(=O)CCN4CCCC4)cc3nc3cc(NC(=O)CCN4CCCC4)ccc23)cc1 | 112
CC1COCCN1c1cc(C2(O)CC3CCC(C2)O3)c2cnn(-c3ccn[nH]3)c2n1 (stereo unspecified) + CN(C)c1ccc(Nc2c3ccc(NC(=O)CCN4CCCC4)cc3nc3cc(NC(=O)CCN4CCCC4)ccc23)cc1 | 106
Cc1cccc(N(C)C(=O)C2C(O)CCN2c2nc(C)cc(C(F)(F)F)c2C#N)c1 (stereo unspecified) + CN(C)c1ccc(Nc2c3ccc(NC(=O)CCN4CCCC4)cc3nc3cc(NC(=O)CCN4CCCC4)ccc23)cc1 | 106
Cn1ncnc1[C@H]1c2n[nH]c(=O)c3cc(F)cc(c23)N[C@@H]1c1ccc(F)cc1 + CN(C)c1ccc(Nc2c3ccc(NC(=O)CCN4CCCC4)cc3nc3cc(NC(=O)CCN4CCCC4)ccc23)cc1 | 87
O=C(c1cc(Cc2n[nH]c(=O)c3ccccc23)ccc1F)N1CCN(C(=O)C2CC2)CC1 + CN(C)c1ccc(Nc2c3ccc(NC(=O)CCN4CCCC4)cc3nc3cc(NC(=O)CCN4CCCC4)ccc23)cc1 | 111

Same assay, conditions: second compound 0.0316 µM; first compound 0.0999 µM; stronger effect = lower value; spheroids with HUVEC and MSC

SMILES | viability, T/C [%]
Cn1ncnc1[C@H]1c2n[nH]c(=O)c3cc(F)cc(c23)N[C@@H]1c1ccc(F)cc1 + CN(C)c1ccc(Nc2c3ccc(NC(=O)CCN4CCCC4)cc3nc3cc(NC(=O)CCN4CCCC4)ccc23)cc1 | 90.9

Same assay, conditions: second compound 0.0316 µM; first compound 0.1 µM; stronger effect = lower value; spheroids with HUVEC and MSC

SMILES | viability, T/C [%]
C=CC(=O)N1CCN(c2nc(=O)n(-c3c(C)ccnc3C(C)C)c3nc(-c4c(O)cccc4F)c(F)cc23)C(C)C1 (stereo unspecified) + CN(C)c1ccc(Nc2c3ccc(NC(=O)CCN4CCCC4)cc3nc3cc(NC(=O)CCN4CCCC4)ccc23)cc1 | 103
CC1COCCN1c1cc(C2(O)CC3CCC(C2)O3)c2cnn(-c3ccn[nH]3)c2n1 (stereo unspecified) + CN(C)c1ccc(Nc2c3ccc(NC(=O)CCN4CCCC4)cc3nc3cc(NC(=O)CCN4CCCC4)ccc23)cc1 | 63.8
Cc1cccc(N(C)C(=O)C2C(O)CCN2c2nc(C)cc(C(F)(F)F)c2C#N)c1 (stereo unspecified) + CN(C)c1ccc(Nc2c3ccc(NC(=O)CCN4CCCC4)cc3nc3cc(NC(=O)CCN4CCCC4)ccc23)cc1 | 102
O=C(c1cc(Cc2n[nH]c(=O)c3ccccc23)ccc1F)N1CCN(C(=O)C2CC2)CC1 + CN(C)c1ccc(Nc2c3ccc(NC(=O)CCN4CCCC4)cc3nc3cc(NC(=O)CCN4CCCC4)ccc23)cc1 | 95

Same assay, conditions: second compound 0.0316 µM; first compound 0.316 µM; stronger effect = lower value; spheroids with HUVEC and MSC

SMILES | viability, T/C [%]
C=CC(=O)N1CCN(c2nc(=O)n(-c3c(C)ccnc3C(C)C)c3nc(-c4c(O)cccc4F)c(F)cc23)C(C)C1 (stereo unspecified) + CN(C)c1ccc(Nc2c3ccc(NC(=O)CCN4CCCC4)cc3nc3cc(NC(=O)CCN4CCCC4)ccc23)cc1 | 110
CC1COCCN1c1cc(C2(O)CC3CCC(C2)O3)c2cnn(-c3ccn[nH]3)c2n1 (stereo unspecified) + CN(C)c1ccc(Nc2c3ccc(NC(=O)CCN4CCCC4)cc3nc3cc(NC(=O)CCN4CCCC4)ccc23)cc1 | 35.4
Cc1cccc(N(C)C(=O)C2C(O)CCN2c2nc(C)cc(C(F)(F)F)c2C#N)c1 (stereo unspecified) + CN(C)c1ccc(Nc2c3ccc(NC(=O)CCN4CCCC4)cc3nc3cc(NC(=O)CCN4CCCC4)ccc23)cc1 | 103
Cn1ncnc1[C@H]1c2n[nH]c(=O)c3cc(F)cc(c23)N[C@@H]1c1ccc(F)cc1 + CN(C)c1ccc(Nc2c3ccc(NC(=O)CCN4CCCC4)cc3nc3cc(NC(=O)CCN4CCCC4)ccc23)cc1 | 80.7
O=C(c1cc(Cc2n[nH]c(=O)c3ccccc23)ccc1F)N1CCN(C(=O)C2CC2)CC1 + CN(C)c1ccc(Nc2c3ccc(NC(=O)CCN4CCCC4)cc3nc3cc(NC(=O)CCN4CCCC4)ccc23)cc1 | 101

Same assay, conditions: second compound 0.0316 µM; first compound 1 µM; stronger effect = lower value; spheroids with HUVEC and MSC

SMILES | viability, T/C [%]
C=CC(=O)N1CCN(c2nc(=O)n(-c3c(C)ccnc3C(C)C)c3nc(-c4c(O)cccc4F)c(F)cc23)C(C)C1 (stereo unspecified) + CN(C)c1ccc(Nc2c3ccc(NC(=O)CCN4CCCC4)cc3nc3cc(NC(=O)CCN4CCCC4)ccc23)cc1 | 112
CC1COCCN1c1cc(C2(O)CC3CCC(C2)O3)c2cnn(-c3ccn[nH]3)c2n1 (stereo unspecified) + CN(C)c1ccc(Nc2c3ccc(NC(=O)CCN4CCCC4)cc3nc3cc(NC(=O)CCN4CCCC4)ccc23)cc1 | 23.3
Cc1cccc(N(C)C(=O)C2C(O)CCN2c2nc(C)cc(C(F)(F)F)c2C#N)c1 (stereo unspecified) + CN(C)c1ccc(Nc2c3ccc(NC(=O)CCN4CCCC4)cc3nc3cc(NC(=O)CCN4CCCC4)ccc23)cc1 | 98.1
O=C(c1cc(Cc2n[nH]c(=O)c3ccccc23)ccc1F)N1CCN(C(=O)C2CC2)CC1 + CN(C)c1ccc(Nc2c3ccc(NC(=O)CCN4CCCC4)cc3nc3cc(NC(=O)CCN4CCCC4)ccc23)cc1 | 97.3
